Reference: PMC12016938, “A small molecule PKCε inhibitor reduces hyperalgesia induced by paclitaxel or opioid withdrawal” (JCI Insight, 2025)

Tests used:
[1] = tested on: morphine self-administration; type: in vivo; conditions: morphine 500 µg/kg/infusion alone, individual rats and group mean
Method: Because many patients with chronic pain take opioids for pain management ([8], [9]), we wanted to know if CP612 would change opioid intake. Therefore, we investigated if adding CP612 to the morphine solution during self-administration (i.e., a cocktail of morphine and CP612) modifies self-administration of morphine. We tested rats from the prior experiment for self-administration of morphine (500 μg/kg/i.v. infusion). Rats were first tested under a FR6 to reestablish responding.
Rats not immediately anesthetized were eliminated from the study. This excluded 2 rats from all experiments.

[2] = tested on: self-administration (addictive potential); test: I.v. self-administration of CP612, between-session progressive ratio and demand curve; conditions: rat, in vivo
Method: We tested the addictive potential of CP612 by examining the extent to which rats are willing to work to obtain CP612. Rats were initially trained to self-administer either saline, morphine (500 μg/kg/i.v. infusion), or 1 of 3 different doses of CP612 (75, 150, or 300 μg/kg/i.v. infusion) for 4 days at fixed ratio 1 (FR1, where 1 nose poke delivers 1 infusion).
During the second phase, the ratio to obtain an infusion increased geometrically every other day (FR1, FR3, FR6, FR12, FR24, FR48, and FR96).
Data (number of self-infusions) were also fitted in an economic-demand curve, which provides an estimate of the motivation to obtain drugs and their addictive potential ([20]). We measured elasticity (α), which is the relative change in consumption as a function of price (i.e., ratio of nose pokes required to obtain an infusion). Behavior is considered “inelastic” when consumption is insensitive to price and “elastic” when consumption is sensitive to price. We also measured Pmax, which is the price at which intake switches from inelastic to elastic. […] (Figure 8B).
Rats not immediately anesthetized were eliminated from the study.
Following this initial acquisition phase at FR1, the ratio to obtain the drug was increased geometrically every other day: FR3 (3 nose pokes are required to obtain 1 infusion of morphine), FR6, FR12, FR24, FR48, and FR96. This allows for analysis of drug consumption as a function of “price” using demand curves for behavioral economics, which can estimate the motivation to obtain drugs and their “addictive potential” ([20]). For this, data from each rat were fitted to the equation log Q = log Q0 + k (e ^–α(Q0 ^C) – 1), where Q represents consumption (number of self-infusions), and Q0 represents the level of consumption at the lowest price. C represents price for the drug (i.e., the ratio), and k is set to a constant accounting for the estimated range of consumption in logarithmic units (k = 4 in these studies). The symbol α is the relative change in consumption across changes in price (ratio). Behavior is considered “inelastic” when consumption is insensitive to price (i.e., the curve is flat, and consumption is maintained despite increases in price), and it switches to “elastic” when consumption is sensitive to price (i.e., when the curve is steep and consumption declines with increases in price). […] We also compared groups for their average intake in the consumption-price curves by measuring α (elasticity) and Pmax.

[3] = tested on: paclitaxel-induced hyperalgesia; test: Paclitaxel-induced hyperalgesia, Randall-Selitto paw pressure test; conditions: male rats; 1 mg/kg i.p. on days 1, 3, 5, 7
Method: We tested if CP612 reverses this hyperalgesia. Male rats received repeated injections of paclitaxel (1 mg/kg, i.p. on days 1, 3, 5, and 7). Twenty-four hours after the last dose of paclitaxel, rats were administered vehicle (2 mL/kg, i.p.) or CP612 (20 mg/kg, i.p.).
Mechanical nociceptive thresholds in rats were quantified by the Randall-Selitto paw pressure test using an Ugo Basile Analgesy-Meter. This device applies a linearly increasing mechanical force to the dorsum or plantar region of the rat hind paw. The mechanical nociceptive threshold is defined as the force in grams at which a rat withdraws its paw. The higher the force to elicit paw withdrawal, the higher the pain threshold (and the lower the sensitivity to pain). For studies testing nociceptive thresholds after the PKCε activator ψεRACK, or after the cancer chemotherapeutic drug paclitaxel, rats were placed into cylindrical acrylic restrainers for 40 minutes before starting each session. The restrainers had lateral ports to allow access to the hind paw, as previously described ([35]), and pain thresholds were measured by applying force to the dorsum of the hind paw. Prior to starting experiments, baseline mechanical nociceptive threshold was obtained as the mean of 2–3 readings on 1 hind paw in each rat.

CN1CC[C@]23c4c5ccc(O)c4O[C@H]2[C@@H](O)C=C[C@H]3[C@H]1C5 [Mor]
D3 Breakin Point (PR) ([1]; Day 3, progressive ratio): 38.3
D1 AH (FR6) ([1]; active hole, Day 1, fixed ratio): 49.2
D2 AH (FR6) ([1]; active hole, Day 2, fixed ratio): 68.6
D3 AH (PR) ([1]; active hole, Day 3, progressive ratio): 186.1
D1 IH (FR6) ([1]; inactive hole, Day 1, fixed ratio): 4.7
D2 IH (FR6) ([1]; inactive hole, Day 2, fixed ratio): 5.2
D3 IH (PR) ([1]; inactive hole, Day 3, progressive ratio): 8.8
D1 Inf (FR6) ([1]; infusions, Day 1, fixed ratio): 6.7
D2 Inf (FR6) ([1]; infusions, Day 2, fixed ratio): 9.4
D3 Inf (PR) ([1]; infusions, Day 3, progressive ratio): 10.5
D1 mg/kg (FR6) ([1]; intake, Day 1, fixed ratio): 3.3 mg/kg
D2 mg/kg (FR6) ([1]; intake, Day 2, fixed ratio): 4.7 mg/kg
D3 mg/kg (PR) ([1]; intake, Day 3, progressive ratio): 5.2 mg/kg
D1 Latency (FR6) ([1]; time to first self-administered infusion, Day 1, fixed ratio): 3.3 min
D2 Latency (FR6) ([1]; time to first self-administered infusion, Day 2, fixed ratio): 2.8 min
AVG AH (FR3) [2]: 25.72
AVG AH (FR6) [2]: 41.83
AVG AH (FR12) [2]: 75.17
AVG AH (FR24) [2]: 136.00
AVG AH (FR48) [2]: 160.11
AVG AH (FR96) [2]: 163.28
AVG IH (FR1_D1 to D4) [2]: 7.83
AVG IH (FR1_Last 2 FR1 days) [2]: 4.44
AVG IH (FR1_Last 4 FR1 days) [2]: 6.31
AVG IH (FR3) [2]: 9.28
AVG IH (FR6) [2]: 8.33
AVG IH (FR12) [2]: 9.39
AVG IH (FR24) [2]: 10.72
AVG IH (FR48) [2]: 14.00
AVG IH (FR96) [2]: 15.22
AVG Inf (FR3) [2]: 7.00
AVG Inf (FR6) [2]: 6.22
AVG Inf (FR12) [2]: 5.56
AVG Inf (FR24) [2]: 5.00
AVG Inf (FR48) [2]: 2.83
AVG Inf (FR96) [2]: 1.17
AVG Latency (FR1_D1 to D4) [2]: 2.60
AVG Latency (FR1_Last 2 FR1 days) [2]: 0.81
AVG Latency (FR1_Last 4 FR1 days) [2]: 0.93
AVG Latency (FR3) [2]: 0.62
AVG Latency (FR6) [2]: 1.19
AVG Latency (FR12) [2]: 1.12
AVG Latency (FR24) [2]: 1.19
AVG Latency (FR48) [2]: 0.69
AVG Latency (FR96) [2]: 0.92
D1 AH (FR1) [2]: 13.44
D1 AH (FR3) [2]: 24.67
D1 AH (FR6) [2]: 38.44
D1 AH (FR12) [2]: 75.11
D1 AH (FR24) [2]: 135.67
D1 AH (FR48) [2]: 167.78
D1 AH (FR96) [2]: 169.67
D1 IH (FR1) [2]: 11.56
D1 IH (FR3) [2]: 9.11
D1 IH (FR6) [2]: 7.11
D1 IH (FR12) [2]: 9.22
D1 IH (FR24) [2]: 10.56
D1 IH (FR48) [2]: 13.22
D1 IH (FR96) [2]: 17.11
D1 Inf (FR1) [2]: 8.78
D1 Inf (FR3) [2]: 6.56
D1 Inf (FR6) [2]: 5.67
D1 Inf (FR12) [2]: 5.67
D1 Inf (FR24) [2]: 4.89
D1 Inf (FR48) [2]: 2.89
D1 Inf (FR96) [2]: 1.33
D1 Latency (FR1) [2]: 7.37
D1 Latency (FR3) [2]: 0.52
D1 Latency (FR6) [2]: 0.51
D1 Latency (FR12) [2]: 0.93
D1 Latency (FR24) [2]: 0.99
D1 Latency (FR48) [2]: 0.71
D1 Latency (FR96) [2]: 1.02
D2 AH (FR1) [2]: 11.44
D2 AH (FR3) [2]: 26.78
D2 AH (FR6) [2]: 45.22
D2 AH (FR12) [2]: 75.22
D2 AH (FR24) [2]: 136.33
D2 AH (FR48) [2]: 152.44
D2 AH (FR96) [2]: 156.89
D2 IH (FR1) [2]: 6.89
D2 IH (FR3) [2]: 9.44
D2 IH (FR6) [2]: 9.56
D2 IH (FR12) [2]: 9.56
D2 IH (FR24) [2]: 10.89
D2 IH (FR48) [2]: 14.78
D2 IH (FR96) [2]: 13.33
D2 Inf (FR1) [2]: 8.89
D2 Inf (FR3) [2]: 7.44
D2 Inf (FR6) [2]: 6.78
D2 Inf (FR12) [2]: 5.44
D2 Inf (FR24) [2]: 5.11
D2 Inf (FR48) [2]: 2.78
D2 Inf (FR96) [2]: 1.00
D2 Latency (FR1) [2]: 0.74
D2 Latency (FR3) [2]: 0.72
D2 Latency (FR6) [2]: 1.88
D2 Latency (FR12) [2]: 1.31
D2 Latency (FR24) [2]: 1.39
D2 Latency (FR48) [2]: 0.68
D2 Latency (FR96) [2]: 0.82
D3 AH (FR1) [2]: 14.11
D3 IH (FR1) [2]: 8.44
D3 Inf (FR1) [2]: 9.22
D3 Latency (FR1) [2]: 1.40
D4 AH (FR1) [2]: 14.00
D4 IH (FR1) [2]: 4.44
D4 Inf (FR1) [2]: 9.56
D4 Latency (FR1) [2]: 0.90
last AH (FR1) [2]: 14.00
last IH (FR1) [2]: 4.44
last Inf (FR1) [2]: 9.78
last Latency (FR1) [2]: 0.71
last-1 AH (FR1) [2]: 14.00
last-1 IH (FR1) [2]: 4.44
last-1 Inf (FR1) [2]: 9.56
last-1 Latency (FR1) [2]: 0.90
last-2 AH (FR1) [2]: 14.11
last-2 IH (FR1) [2]: 8.44
last-2 Inf (FR1) [2]: 9.22
last-2 Latency (FR1) [2]: 1.40
last-3 AH (FR1) [2]: 12.67
last-3 IH (FR1) [2]: 7.89
last-3 Inf (FR1) [2]: 8.89
last-3 Latency (FR1) [2]: 0.69

CC(=O)O[C@H]1C(=O)[C@@]2(C)[C@H]([C@H](OC(=O)c3ccccc3)[C@]3(O)C[C@H](OC(=O)[C@H](O)[C@@H](NC(=O)c4ccccc4)c4ccccc4)C(C)=C1C3(C)C)[C@]1(OC(C)=O)CO[C@@H]1C[C@@H]2O [Paclitaxel]
Effect of paclitaxel on nociceptive threshold [3]: induced hyperalgesia
